Experimental data as given in US20230233576A1, “ECLITASERTIB FOR USE IN TREATING CONDITIONS INVOLVING SYSTEMIC HYPERINFLAMMATORY RESPONSE” (priority 2020, published 2023).
Read-outs that look alike come from different tables or passages of the source.

Key:
SIRS = experiment: acute mouse model of SIRS; type: in vivo
Excerpt: The RIPK1 Inhibitor was studied in an acute mouse model of SIRS. […] There is also rationale that vascular permeability and endothelial dysfunction contribute to SIRS/shock and lethality. […] Additional clinical evidence for the role of RIPK1 in driving systemic inflammation comes from evidence in a rare population of patients that have a mutation in RIPK1 that blocks caspase-mediated cleavage and leads to hyperactivation of this kinase. These patients have periodic fevers with coinciding elevations of cytokines including IL-6 and elevated levels of pRIPK1 in their PBMCs. Patient-derived cells are responsive to RIPK1 kinase inhibition, and some patients are responsive to anti-IL-6 therapy.

[1] = test system: adult participants hospitalized for severe COVID-19; experiment: Phase 1b severe COVID-19 study: 7-point clinical scale; type: in vivo, human; conditions: 600 mg
Excerpt: Exploratory clinical assessments endpoints included: • Change from baseline in ferritin and LDH at Day 7 and EOT • Proportion of participants per category of the 7-point clinical scale at EOT • Time to improvement by 2 points in category of 7-point clinical scale • Quantitative SARS-COV-2 viral load in blood at baseline and on Day 3, 5, 7 and EOT
The 7-point clinical scale is described below: • 1. Death • 2. Hospitalized, on invasive mechanical ventilation or ECMO • 3. Hospitalized, on non-invasive ventilation or high flow oxygen devices • 4. Hospitalized, requiring supplemental oxygen • 5. Hospitalized, not requiring supplemental oxygen—requiring ongoing medical care (COVID-19 related or otherwise) • 6. Hospitalized, not requiring supplemental oxygen—no longer requires ongoing medical care • 7. Not hospitalized

[2] = test system: peripheral cytokine and biomarker levels; experiment: Phase 1b severe COVID-19 study: peripheral cytokine and biomarker levels; type: in vivo, human
Excerpt: The biomarker variables included pro-inflammatory cytokines (such as IL 4, IL-6, IL-10, IL-17, TNFα, and IFNγ) and RIPK1 PD cytokines/chemokines (such as MIP1α and MIP1β) that are elevated in participants with SARS-CoV-2.
The exploratory PD/biomarker endpoint was the change from baseline in peripheral cytokine and biomarker levels up to EOT.
Each analyte was selected, and the assay analytically validated based on reports in the literature and in-house research.

[3] = Phase 1b severe COVID-19 study: pharmacokinetics (plasma concentrations, Bayesian population PK); type: in vivo, human; conditions: for AUC(0-t) / Cmax: human, oral, 300 mg
Protocol: RIPK1 Inhibitor concentrations at selected time points over the two weeks of treatment were summarized by descriptive statistics. PK parameters such as Cmax, tmax, and AUC were calculated by a Bayesian analysis: the main results are presented in Section 5.2.
Descriptive statistics on plasma concentration of RIPK1 Inhibitor were analyzed by the Sponsor's Biostatistics Department.
Plasma concentrations of RIPK1 Inhibitor was listed and summarized by arithmetic mean, geometric mean, standard deviation (SD), standard error of the mean (SEM), coefficient of variance (%) (CV), minimum, median, maximum, and number of observations by timepoints. When applicable, relevant data were summarized by route: i.e., oral and oral gavage, and timepoints.
The pharmacokinetic parameters in participants with severe COVID-19 were assessed by Bayesian analysis using a POP population PK model (P0H0757) developed in other Phase 1 studies.
PK parameters were determined for 46 participants (one participant was excluded because all plasma concentrations were BLOQ). A summary of descriptive statistics on RIPK1 Inhibitor plasma AUC0-12, Cmax, and Ctrough over 2 weeks of treatment are presented in Table 43.

[4] = test system: adult participants hospitalized for severe COVID-19; experiment: Phase 1b severe COVID-19 study: vital signs abnormalities (PCSA); type: in vivo, human; conditions: 600 mg, TEAE period
Protocol: Physical examination including lung auscultation and assessment of consciousness, vital sign, electrocardiogram (ECG) parameters were measured per protocol.
For laboratory parameters (hematology, clinical chemistry, and urinalysis), vital signs, and ECG, incidences of potentially clinically significant abnormality (PCSA) values, actual values and change from baseline were summarized by treatment group.
For all laboratory, vital signs and ECG parameters, raw data and change from baseline were summarized in descriptive statistics by treatment group and scheduled time of measurement, with the exception of AST, ALT and alkaline phosphatase: instead of summarizing data in descriptive statistics, participants' profiles were presented through graphics by treatment group and with a color code to identify sites. The reason was that blood samples were processed by local laboratories with different normal ranges. For the rest of clinical laboratory these parameters it is reasonable to pool data as they are standard procedure and no significant differences in normal ranges were expected.

[5] = EOT, Efficacy population (N = 41)
[6] = 600 mg, Day 7, LOCF, Safety population
[7] = 600 mg, Day 7, not statistically significant
[8] = Day 7 vs baseline, LOCF, Safety population

SMILES: CN1C(=O)[C@@H](NC(=O)c2nnc(Cc3ccccc3)[nH]2)COc2cccnc21 [RIPK1 Inhibitor, (S)-5-benzyl-N-(5-methyl-4-oxo-2,3,4,5-tetrahydropyrido[3,2-b][1,4]oxazepin-3-yl)-4H-1,2,4-triazole-3-carboxamide]
- SIRS induction (SIRS): dose-dependently blocked and at the highest dose completely abolished
- 7-point clinical scale category 3, participants [1, 5]: 0 n
- 7-point clinical scale category 5, participants [1, 5]: 0 n
- 7-point clinical scale category 6, participants [1, 5]: 0 n
- median time to improvement by at least 2 points in the category of 7-point scale ([1]; Kaplan-Meier, Efficacy population): 8 days
- participants with a 7-point clinical scale score of 5 or lower ([1]; end of study treatment period or early discontinuation): 15%
- IL-6 fold change from baseline [2, 6]: 0.4
- IL-10 fold change from baseline [2, 6]: 0.48
- chemokine (C-X-C motif) Ligand 10 fold change from baseline [2, 6]: 0.26
- interferon gamma fold change from baseline [2, 6]: 0.44
- IL-6, ratio of relatives changes (RIPK1 Inhibitor versus placebo) [2, 7]: 0.63
- IL-10, ratio of relatives changes (RIPK1 Inhibitor versus placebo) [2, 7]: 0.82
- chemokine (C-X-C Motif) Ligand 10, ratio of relatives changes (RIPK1 Inhibitor versus placebo) [2, 7]: 0.7
- monocyte chemotactic protein 1, ratio of fold changes between RIPK1 Inhibitor and placebo [2, 7]: 0.85
- Chemokine (C-C Motif) Ligand 13 (pg/mL): RIPK1 Inhibitor 600 mg vs Placebo Fold-Change ([2]; Day 7, LOCF, Safety population): 1.15 (60)
- Chemokine (C-X-C Motif) Ligand 10 (pg/mL): RIPK1 Inhibitor 600 mg vs Placebo Fold-Change ([2]; Day 7, LOCF, Safety population): 0.7 (56)
- Eotaxin-1 (pg/mL): RIPK1 Inhibitor 600 mg vs Placebo Fold-Change ([2]; Day 7, LOCF, Safety population): 1.03 (65)
- Interferon Gamma (pg/mL): RIPK1 Inhibitor 600 mg vs Placebo Fold-Change ([2]; Day 7, LOCF, Safety population): 1.03 (66)
- Interleukin 6 (pg/mL): RIPK1 Inhibitor 600 mg vs Placebo Fold-Change ([2]; Day 7, LOCF, Safety population): 0.63 (66)
- Interleukin 8 - Cytokines (pg/mL): RIPK1 Inhibitor 600 mg vs Placebo Fold-Change ([2]; Day 7, LOCF, Safety population): 0.8 (66)
- Interleukin 10 (pg/mL): RIPK1 Inhibitor 600 mg vs Placebo Fold-Change ([2]; Day 7, LOCF, Safety population): 0.82 (66)
- Macrophage Inflammatory Protein 1 Beta (pg/mL): RIPK1 Inhibitor 600 mg vs Placebo Fold-Change ([2]; Day 7, LOCF, Safety population): 0.85 (60)
- Macrophage-Derived Chemokine (pg/mL): RIPK1 Inhibitor 600 mg vs Placebo Fold-Change ([2]; Day 7, LOCF, Safety population): 1.2 (60)
- Monocyte Chemotactic Protein 1 (pg/mL): RIPK1 Inhibitor 600 mg vs Placebo Fold-Change ([2]; Day 7, LOCF, Safety population): 0.85 (60)
- Ratio of Interleukin 6 and Interleukin 10 (RATIO): RIPK1 Inhibitor 600 mg vs Placebo Fold-Change ([2]; Day 7, LOCF, Safety population): 0.86 (66)
- Tumor Necrosis Factor alpha (pg/mL): RIPK1 Inhibitor 600 mg vs Placebo Fold-Change ([2]; Day 7, LOCF, Safety population): 0.98 (66)
- okine (C-C Motif) Ligand 17: RIPK1 Inhibitor 600 mg vs Placebo Fold-Change ([2]; Day 7, LOCF, Safety population): 1 (60)
- Chemokine (C-C Motif) Ligand 13 (pg/mL): RIPK1 Inhibitor 600 mg Fold-Change [2, 8]: 1.31 (41)
- Chemokine (C-X-C Motif) Ligand 10 (pg/mL): RIPK1 Inhibitor 600 mg Fold-Change [2, 8]: 0.26 (37)
- Eotaxin-1 (pg/mL): RIPK1 Inhibitor 600 mg Fold-Change [2, 8]: 1.21 (45)
- Interferon Gamma (pg/mL): RIPK1 Inhibitor 600 mg Fold-Change [2, 8]: 0.44 (47)
- Interleukin 6 (pg/mL): RIPK1 Inhibitor 600 mg Fold-Change [2, 8]: 0.4 (47)
- Interleukin 8 - Cytokines (pg/mL): RIPK1 Inhibitor 600 mg Fold-Change [2, 8]: 0.71 (47)
- Interleukin 10 (pg/mL): RIPK1 Inhibitor 600 mg Fold-Change [2, 8]: 0.48 (47)
- Macrophage Inflammatory Protein 1 Beta (pg/mL): RIPK1 Inhibitor 600 mg Fold-Change [2, 8]: 1.07 (41)
- Macrophage-Derived Chemokine (pg/mL): RIPK1 Inhibitor 600 mg Fold-Change [2, 8]: 1.05 (41)
- Monocyte Chemotactic Protein 1 (pg/mL): RIPK1 Inhibitor 600 mg Fold-Change [2, 8]: 0.69 (41)
- Ratio of Interleukin 6 and Interleukin 10 (RATIO): RIPK1 Inhibitor 600 mg Fold-Change [2, 8]: 0.87 (47)
- Tumor Necrosis Factor alpha (pg/mL): RIPK1 Inhibitor 600 mg Fold-Change [2, 8]: 0.85 (47)
- okine (C-C Motif) Ligand 17: RIPK1 Inhibitor 600 mg Fold-Change [2, 8]: 1.56 (41)
- steady state reached on ([3]; 300 mg BID for up to 14 days, severe COVID-19): 3 days
- exposure difference between male and female ([3]; 300 mg BID, severe COVID-19): No obvious exposure difference
- higher AUC0-12h in patients<85.6 kg as compared to ≥85.6 kg ([3]; 300 mg BID, severe COVID-19): 14%
- Ctrough, mean (SD) ([3]; 300 mg BID, steady state (Day 3), plasma, severe COVID-19, Bayesian population PK): 2025 (783) ng/mL
- Ctrough ([3]; Day 1 (n = 46), Mean (SD), 300 mg BID, plasma, participants with severe COVID-19, Bayesian population PK analysis): 1457 (442) ng/mL
- Ctrough ([3]; Day 3 (n = 42), Mean (SD), 300 mg BID, plasma, participants with severe COVID-19, Bayesian population PK analysis): 2025 (783) ng/mL
- Ctrough ([3]; Day 7 (n = 26), Mean (SD), 300 mg BID, plasma, participants with severe COVID-19, Bayesian population PK analysis): 2142 (838) ng/mL
- Ctrough ([3]; Day 14 (n = 10), Mean (SD), 300 mg BID, plasma, participants with severe COVID-19, Bayesian population PK analysis): 2524 (875) ng/mL
- AUC(0-t) ([3]; plasma, 300 mg BID, steady state (Day 3), plasma, severe COVID-19, Bayesian population PK, read-out: AUC0-12h, mean (SD)): 42.2 µg·h/mL
- Cmax ([3]; plasma, 300 mg BID, steady state (Day 3), plasma, severe COVID-19, Bayesian population PK, read-out: Cmax, mean (SD)): 5.17 µg/mL
- AUC(0-t) ([3]; plasma, Day 1 (n = 46), Mean (SD), 300 mg BID, plasma, participants with severe COVID-19, Bayesian population PK analysis, read-out: AUC0-12): 28.2 µg·h/mL
- Cmax ([3]; plasma, Day 1 (n = 46), Mean (SD), 300 mg BID, plasma, participants with severe COVID-19, Bayesian population PK analysis, read-out: Cmax): 3.68 µg/mL
- AUC(0-t) ([3]; plasma, Day 3 (n = 42), Mean (SD), 300 mg BID, plasma, participants with severe COVID-19, Bayesian population PK analysis, read-out: AUC0-12): 42.2 µg·h/mL
- Cmax ([3]; plasma, Day 3 (n = 42), Mean (SD), 300 mg BID, plasma, participants with severe COVID-19, Bayesian population PK analysis, read-out: Cmax): 5.17 µg/mL
- AUC(0-t) ([3]; plasma, Day 7 (n = 26), Mean (SD), 300 mg BID, plasma, participants with severe COVID-19, Bayesian population PK analysis, read-out: AUC0-12): 43.8 µg·h/mL
- Cmax ([3]; plasma, Day 7 (n = 26), Mean (SD), 300 mg BID, plasma, participants with severe COVID-19, Bayesian population PK analysis, read-out: Cmax): 5.34 µg/mL
- AUC(0-t) ([3]; plasma, Day 14 (n = 10), Mean (SD), 300 mg BID, plasma, participants with severe COVID-19, Bayesian population PK analysis, read-out: AUC0-12): 48.4 µg·h/mL
- Cmax ([3]; plasma, Day 14 (n = 10), Mean (SD), 300 mg BID, plasma, participants with severe COVID-19, Bayesian population PK analysis, read-out: Cmax): 5.63 µg/mL
- participants with systolic blood pressure≤95 mmHg and decrease from baseline≥20 mmHg [4]: 4 participants
- PCSA Diastolic Blood Pressure ≤45 mmHg and decrease from baseline ≥10 mmHg ([4]; Safety population): 1/47
- PCSA Diastolic Blood Pressure ≥110 mmHg and increase from baseline ≥10 mmHg ([4]; Safety population): 0/47
- PCSA Heart Rate ≤50 beats/min and decrease from baseline ≥20 beats/min ([4]; Safety population): 0/47
- PCSA Heart Rate ≥120 beats/min and increase from baseline 20 beats/min ([4]; Safety population): 1/47
- PCSA Systolic Blood Pressure ≤95 mmHg and decrease from baseline ≥20 mmHg ([4]; Safety population): 4/47
- PCSA Systolic Blood Pressure ≥160 mmHg and increase from baseline ≥20 mmHg ([4]; Safety population): 4/47
